Data published in patent US11130780B2, “Inhibitors of growth factor activation enzymes” (Washington University, priority 2015, dated 2021).
pIC50, pKi: −log10 of the molar value.

Columns and labels:
Type in all cases: biochemical
HGFA [1] = target: T1, HGFA (Homo sapiens, UniProt Q04756); test: Chromogenic kinetic enzyme inhibitor assay of HGFA; conditions: Table 4.1; chromogenic substrate Pefachrome FVIIa
T1 construct: His6 tag (N); seven amino acid spacer and seven amino acid TEV cleavage site (N); Honey Bee melittin signal peptide (N); made in house; host or cells: High 5 insect cells (baculovirus; virus raised in Sf9)
T1 sequence (Q04756 373-655): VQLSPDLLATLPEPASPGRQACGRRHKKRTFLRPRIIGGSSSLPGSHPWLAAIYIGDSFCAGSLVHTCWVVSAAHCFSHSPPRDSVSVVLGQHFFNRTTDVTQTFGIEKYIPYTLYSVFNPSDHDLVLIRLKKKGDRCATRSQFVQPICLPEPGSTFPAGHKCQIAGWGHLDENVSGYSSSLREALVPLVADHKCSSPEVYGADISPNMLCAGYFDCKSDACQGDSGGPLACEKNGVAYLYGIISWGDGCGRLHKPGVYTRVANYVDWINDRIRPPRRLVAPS
Excerpt: This PCR product was cloned into the SfoI-HindIII sites of a modified pFastBac HT baculovirus expression vector (Addgene, Cambridge, Mass.). This vector contains a six amino His tag followed by a seven amino spacer and a seven amino acid TEV cleavage site placed immediately downstream of the Honey Bee melittin signal peptide. Using a modified Bac to Bac Expression System (Life Technologies, Carlsbad, Calif.), recombinant HGFA bacmids were obtained by transforming DH10Bac Escherichia coli cells. To obtain HGFA containing baculovirus, purified bacmids were transfected into Sf9 insect cells. After 5 days in culture at 27° C., media was harvested from transfected Sf9 cells. This media was used to prepare baculovirus infected insect cells (BIICs). These BIIICs were used to infect High 5 insect cells. Four days post infection, media was harvested and recombinant protein prepared as follows. Media was chilled to 4° C. and spun at 4000×g for 20 minutes (all subsequent steps were performed at 4° C. unless noted). […] Concentrated media was then buffer exchanged in two steps, five volumes of 50 mM Na-phosphate, 500 mM NaCl, pH 6.2, followed by five volumes of 50 mM Na-phosphate, 500 mM NaCl, pH 7.5. […] After mixing this slurry for 12 hours, nickel agarose beads were allowed to settle by gravity and then loaded into a column. Beads were washed with buffer (25 mM Na-phosphate, 500 mM NaCl, 25 mM imidazole, pH 8) and the bound protein eluted using (25 mM Na-phosphate, 500 mM NaCl, 250 mM imidazole, pH 8). Using a Amicon Ultra-4 Centrifugal filters (#UFC801008, Merck Millipore, Ltd., Tullagreen, Ireland), peak protein fractions were concentrated and run over a Superdex-200 10/300 GL column (GE Healthcare Life Sciences, Piscataway, N.J.) in 10 mM Tris, 200 mM NaCl, 0.2 mM EDTA, pH 8. HGFA containing fractions were pooled, concentrated, made 50% glycerol, and stored at minus 20° C. Protein was quantitated using a modified Lowry protein assay (#500-0006, Bio-Rad Laboratories, Hercules, Calif.).
Using Gen 5 2.00 software program (Biotek, Winnoski, Vt.), a four parameter curve fit was used to determine the inhibitor IC50s from a plot of the mean reaction velocity versus the inhibitor concentration. The IC50 values represent the average of three separate experimental determinations.

HGFA [2] = target: T1, HGFA; test: Fluorescent kinetic enzyme inhibitor assay of HGFA; conditions: for pKi: Table 4.2, Boc-QLR-AMC substrate, read-out: HGFA Ki
In short: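 Recombinant His-tagged HGFA residues 373-655 from insect cells, with substrate at Km. Inhibitors in 11-point dilutions, 0-20 μM final, 2% DMSO, fluorescence (ex 380/em 460 nm) followed over time at room temperature. IC50 from four-parameter fit of mean velocity, average of three experiments.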

matriptase = target: T2, matriptase (Homo sapiens, UniProt Q9Y5Y6); test: Fluorescent kinetic enzyme inhibitor assay of matriptase; conditions: for pIC50: Table 4.1
T2 construct: Charles Craik, UCSF (obtained from another laboratory)
T2 sequence (Q9Y5Y6 615-855 limits assumed): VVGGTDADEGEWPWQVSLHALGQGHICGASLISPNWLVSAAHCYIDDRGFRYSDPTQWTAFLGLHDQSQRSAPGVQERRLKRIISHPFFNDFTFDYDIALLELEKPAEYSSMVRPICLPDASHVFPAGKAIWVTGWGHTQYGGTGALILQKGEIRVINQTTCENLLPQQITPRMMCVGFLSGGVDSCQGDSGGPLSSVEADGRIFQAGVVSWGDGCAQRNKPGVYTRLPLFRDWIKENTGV
Experimental: (§1) Inhibitors (11-pt serial dilutions, 0-20 μM final concentration in reaction) were serially diluted in DMSO (2% DMSO final concentration) and then mixed with either recombinant serine protease domain of HGFA [Z. Han, P. K. Harris, D. E. Jones, R. Chugani, T. Kim, M. Agarwal, W. Shen, S. A. Wildman, J. W. Janetka, Acs Med Chem Lett 2014, 5, 1219-1224], matriptase (Charles Craik, UCSF) or hepsin* (#4776-SE-010, R&D Systems, Minneapolis, Minn.) in black 384 well plates (Corning #3575. Corning, N.Y.). […] The final substrate concentrations for all assays were at the Km for the respective enzymes. Changes in fluorescence (excitation at 380 nm and emission at 460 nm) were measured at room temperature over time in a Biotek Synergy 2 plate reader (Winnoski, Vt.). Using GraphPad Prism version 6.04 software program, (GraphPad Software, San Diego, Calif., www.graphpad.com), a four parameter curve fit was used to determine the inhibitor IC50s from a plot of the mean reaction velocity versus the inhibitor concentration. The IC50 values represent the average of three separate experimental determinations.

hepsin = target: T3, hepsin (Homo sapiens, UniProt P05981); test: Fluorescent kinetic enzyme inhibitor assay of hepsin; conditions: for pIC50: Table 4.1; for pKi: Table 4.2, Boc-QAR-AMC substrate, read-out: Hepsin Ki
T3 construct: purchased R&D Systems 4776-SE-010
T3 sequence (P05981 163-417 limits assumed): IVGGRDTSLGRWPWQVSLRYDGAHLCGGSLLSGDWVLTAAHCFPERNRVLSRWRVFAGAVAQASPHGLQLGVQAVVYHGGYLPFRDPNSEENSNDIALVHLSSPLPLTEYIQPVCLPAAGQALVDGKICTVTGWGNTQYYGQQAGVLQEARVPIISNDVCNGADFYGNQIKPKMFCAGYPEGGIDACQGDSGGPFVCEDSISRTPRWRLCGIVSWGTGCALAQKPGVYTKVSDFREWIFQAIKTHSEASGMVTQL
T3 sequence (P05981 45-162 partner limits assumed): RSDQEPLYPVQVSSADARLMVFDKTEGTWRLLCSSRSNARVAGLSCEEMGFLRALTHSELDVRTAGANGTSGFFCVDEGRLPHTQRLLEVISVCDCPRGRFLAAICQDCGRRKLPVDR
Experimental: as §1

| SMILES | pIC50 (HGFA [1]) | pKi (HGFA [2]) | also measured |
| --- | --- | --- | --- |
| CC(=O)N[C@@H](CC(C)C)C(=O)N[C@@H](CC(C)C)C(=O)N[C@@H](CCCNC(=N)N)C(=O)c1nccs1 [Ac-LLR-kt] | 5.83 | 6.60 | – |
| CC(=O)N[C@@H](CCCCN)C(=O)N[C@@H](CCC(N)=O)C(=O)N[C@@H](CC(C)C)C(=O)N[C@H](CCCNC(=N)N)C(=O)c1nccs1 [Compound 5-1, Ac-KQLdR-kt] | 5.26 | – | – |
| CC(=O)N[C@@H](CCCCN)C(=O)N[C@@H](Cc1c[nH]cn1)C(=O)N[C@@H](CC(C)C)C(=O)N[C@@H](CCCNC(=N)N)C(=O)c1nccs1 [Compound 5a, Ac-KHLR(SEQ ID NO: 2)-kt] | 6.19 | 7.02 | – |
| CC(=O)N[C@@H](CCCCN)C(=O)N[C@@H](Cc1c[nH]cn1)C(=O)N[C@@H](CC(C)C)C(=O)N[C@H](CCCNC(=N)N)C(=O)c1nccs1 [Compound 5a-1, Ac-KHLdR-kt] | 4.96 | – | – |
| CC(=O)N[C@@H](Cc1c[nH]c2ccccc12)C(=O)N[C@@H](CCC(N)=O)C(=O)N[C@@H](CC(C)C)C(=O)N[C@@H](CCCNC(=N)N)C(=O)c1nccs1 [Compound 5b, Ac-WQLR(SEQ ID NO: 3)-kt] | 6.33 | 7.19 | pIC50 (matriptase): 7.31; pIC50 (hepsin): 9.00; pKi (hepsin): 9.68 |
| CC(=O)N[C@@H](Cc1c[nH]c2ccccc12)C(=O)N[C@@H](CCC(N)=O)C(=O)N[C@@H](CC(C)C)C(=O)N[C@H](CCCNC(=N)N)C(=O)c1nccs1 [Compound 5b-1, Ac-WQLdR-kt] | 5.15 | – | – |
| CC(=O)N[C@@H](CCCCN)C(=O)N[C@@H](CCC(N)=O)C(=O)N[C@@H](Cc1ccccc1)C(=O)N[C@H](CCCNC(=N)N)C(=O)c1nccs1 [Compound 5c-1, Ac-KQFdR-kt] | 5.11 | – | – |
| CC(=O)N[C@@H](CCCCN)C(=O)N[C@@H](Cc1ccccc1)C(=O)N[C@@H](CC(C)C)C(=O)N[C@@H](CCCNC(=N)N)C(=O)c1nccs1 [Compound 5d, Ac-KFLR(SEQ ID NO: 5)-kt] | 6.48 | 7.10 | selectivity among HGFA, matriptase and hepsin (HGFA [2]): HGFA selectivity over both hepsin and matriptase; pIC50 (matriptase): 7.46; pKi (matriptase; Table 4.2, Boc-QAR-AMC substrate): 7.82; pIC50 (hepsin): 7.66; pKi (hepsin): 8.68 |
| CC(=O)N[C@@H](CCCNC(=N)N)C(=O)N[C@@H](CCC(N)=O)C(=O)N[C@@H](CC(C)C)C(=O)N[C@H](CCCNC(=N)N)C(=O)c1nccs1 [Compound 5e-1, Ac-RQLdR-kt] | 5.51 | – | – |
| CC(=O)N[C@@H](CO)C(=O)N[C@@H](CCC(N)=O)C(=O)N[C@@H](CC(C)C)C(=O)N[C@@H](CCCNC(=N)N)C(=O)c1nccs1 [Compound 5f, Ac-SQLR(SEQ ID NO: 7)-kt] | 6.74 | 6.74 | – |
| CC(=O)N[C@@H](CO)C(=O)N[C@@H](CCCCN)C(=O)N[C@@H](CC(C)C)C(=O)N[C@H](CCCNC(=N)N)C(=O)c1nccs1 [Compound 6-1, Ac-SKLdR-kt] | 5.20 | – | – |
| CC(=O)N[C@@H](CO)C(=O)N[C@@H](Cc1c[nH]cn1)C(=O)N[C@@H](CC(C)C)C(=O)N[C@@H](CCCNC(=N)N)C(=O)c1nccs1 [Compound 6a, Ac-SHLR(SEQ ID NO: 11)-kt] | 5.74 | 6.48 | pIC50 (matriptase): 6.25; pIC50 (hepsin): 8.30 |
| CC(=O)N[C@@H](CO)C(=O)N[C@@H](Cc1c[nH]cn1)C(=O)N[C@@H](CC(C)C)C(=O)N[C@H](CCCNC(=N)N)C(=O)c1nccs1 [Compound 6a-1, Ac-SHLdR-kt] | 4.67 | – | – |
| CC(=O)N[C@@H](Cc1c[nH]c2ccccc12)C(=O)N[C@@H](CCCCN)C(=O)N[C@@H](CC(C)C)C(=O)N[C@@H](CCCNC(=N)N)C(=O)c1nccs1 [Compound 6b, Ac-WKLR(SEQ ID NO: 12)-kt] | 6.49 | 7.25 | pIC50 (matriptase): 7.01; pIC50 (hepsin): 8.40 |
| CC(=O)N[C@@H](Cc1c[nH]c2ccccc12)C(=O)N[C@@H](CCCCN)C(=O)N[C@@H](CC(C)C)C(=O)N[C@H](CCCNC(=N)N)C(=O)c1nccs1 [Compound 6b-1, Ac-WKLdR-kt] | 5.19 | – | – |
| CC(=O)N[C@@H](CO)C(=O)N[C@@H](CCCCN)C(=O)N[C@@H](Cc1ccccc1)C(=O)N[C@H](CCCNC(=N)N)C(=O)c1nccs1 [Compound 6c-1, Ac-SKFdR-kt] | 4.97 | – | – |
| CC(=O)N[C@@H](CC(N)=O)C(=O)N[C@@H](CCCCN)C(=O)N[C@@H](CC(C)C)C(=O)N[C@@H](CCCNC(=N)N)C(=O)c1nccs1 [Compound 6d, Ac-NKLR(SEQ ID NO: 14)-kt] | 6.40 | 7.10 | pKi (hepsin): 8.85 |
| CC(=O)N[C@@H](CO)C(=O)N[C@H](CCCNC(=N)N)C(=O)N[C@@H](CC(C)C)C(=O)N[C@H](CCCNC(=N)N)C(=O)c1nccs1 [Compound 6e-3, Ac-SdRLdR-kt] | 4.92 | – | – |
| CC(=O)N[C@H](C(=O)N[C@@H](CCCCN)C(=O)N[C@@H](CC(C)C)C(=O)N[C@@H](CCCNC(=N)N)C(=O)c1nccs1)[C@@H](C)O [Compound 6f, Ac-TKLR(SEQ ID NO: 16)-kt] | 6.25 | 6.99 | – |
| CC(=O)N[C@@H](CCCNC(=N)N)C(=O)N[C@@H](CCCCN)C(=O)N[C@@H](CC(C)C)C(=O)N[C@@H](CCCNC(=N)N)C(=O)c1nccs1 [Compound 6h, Ac-RKLR(SEQ ID NO: 18)-kt] | 6.43 | 7.77 | – |
| CC(C)C[C@H](NC(=O)[C@H](CCC(N)=O)NC(=O)[C@@H](N)CCCCN)C(=O)N[C@@H](CCCNC(=N)N)C(=O)c1nccs1 [H-KQLR(SEQ ID NO: 1)-Kt] | 6.36 | – | – |
| CC(C)C[C@H](NC(=O)[C@H](CCC(N)=O)NC(=O)[C@@H](N)CCCCN)C(=O)N[C@H](CCCNC(=N)N)C(=O)c1nccs1 [H-KQLdR-kt] | 4.95 | – | – |
| CC(=O)N[C@@H](CC(C)C)C(=O)N[C@@H](CC(C)C)C(=O)N[C@H](C=O)CCCNC(=N)N [Leupeptin, reference compound] | 6.27 | 6.73 | fold selective for HGFA over matriptase (HGFA [2]): 3 fold; pIC50 (matriptase): 5.94; fold more potent for hepsin versus HGFA (hepsin): 3 fold; pIC50 (hepsin): 6.59 |
